B1: OVA alone: endotoxin-free ovalbumin antigen, 50 μg/mouse, without particles (protein, UniProt P01012 2-386, looked up)
Ovalbumin: GSIGAASMEFCFDVFKELKVHHANENIFYCPIAIMSALAMVYLGAKDSTRTQINKVVRFDKLPGFGDSIEAQCGTSVNVHSSLRDILNQITKPNDVYSFSLASRLYAEERYPILPEYLQCVKELYRGGLEPINFQTAADQARELINSWVESQTNGIIRNVLQPSSVDSQTAMVLVNAIVFKGLWEKAFKDEDTQAMPFRVTEQESKPVQMMYQIGLFRVASMASEKMKILELPFASGTMSMLVLLPDEVSGLEQLESIINFEKLTEWTSSNVMEERKIKVYLPRMKMEEKYNLTSVLMAMGITDVFSSSANLSGISSAESLKISQAVHAAHAEINEAGREVVGSAEAGVDAASVSEEFRADHPFLFCIKHIATNAVLFFGRCVSP
modifications: endotoxin-free
notes: endotoxin-free ovalbumin antigen, 50 μg/mouse, without particles

Legend:
[1] = tested on: IL-1α production by bone marrow-derived dendritic cells (BMDCs); test: IL-1α ELISA on supernatants of BMDCs incubated with particles; assay type: cell-based, mouse; details: C57BL/6 BMDCs; LPS 1 ng/ml; serial dilutions SC-PS 31.25 μg/ml to 1 mg/ml with lectin 1.56 to 50 μg/ml; vs unconjugated SC-PS
Description: (§1) BMDCs were isolated and cultured as described in Example 2 at a density of 6.25×10^5 cells/ml in 96 well U-bottomed microplates. Cells were stimulated with a Toll-like receptor (TLR) ligand (LPS or Pam2CSK4) for 6 hours. Cells were then incubated with either medium, alum/SC-PS particles, alum/SC-PS particles conjugated with UEA-1, alum/SC-PS particles conjugated with UEA-1 mimetic or with UEA-1 alone for 24 hours. After incubation, supernatants from BMDCs were collected and cytokine concentrations measured by ELISA. Antibody pairs specific for each cytokine were used for immunoassaying. The following cytokines were measured by immunoassay: IL-1α, IL-1β.
(§2) Capture antibodies were obtained from BD Pharmingen (San Diego, Calif.), BioLegend (San Diego, Calif.) and R&D Systems, Inc. (Minneapolis, Minn.) and prepared according to the manufacturer's specifications (see Table 2) and a volume of 40 μl/well added to high-binding 96 well ELISA plates. Plates were then incubated for 2 hours at 37° C. or overnight at 4° C. After incubation, plates were washed in PBS-T (×3) and tapped dry. Plates were then blocked with the appropriate blocking solution (see Table 2) and incubated for 2 hours at 37° C. After incubation plates were washed in PBS-T (×3) and tapped dry. Supernatants were transferred from cell culture plates to fresh 96 well plates. All supernatants were stored at −20° C. when not in use. Cell supernatants were applied to plates at the indicated dilutions (see Table 2). A blank triplicate was left on each plate containing the diluent as a blank. Standards were prepared at the starting concentration in the recommended diluent as specified by the manufacturer and transferred to a 96 well plate and serial dilutions (1:2) performed (see Table 2). All standards and samples were applied to plates at 40 μl/well total volume for incubation overnight at 4° C. After incubation plates were washed with PBS-T (×5) and tapped dry. […] Plates were then stopped by the addition of 20 μl/well of 1M H2SO4 and read. […]

[2] = tested on: IL-1β production by bone marrow-derived dendritic cells (BMDCs); test: IL-1β ELISA on supernatants of BMDCs incubated with particles; assay type: cell-based, mouse; details: C57BL/6 BMDCs; LPS 1 ng/ml; serial dilutions SC-PS 31.25 μg/ml to 1 mg/ml with lectin 1.56 to 50 μg/ml; vs unconjugated SC-PS
Description: as §1, §2

[3] = tested on: IL-1α production by BMDCs from NLRP3−/− mice; test: IL-1α ELISA on supernatants of NLRP3−/− BMDCs; assay type: cell-based, mouse; details: SC-PS 31.25 μg/ml to 1 mg/ml, lectin 1.56 to 50 μg/ml, vs untargeted particles
Description: as §1
(§3) Capture antibodies were obtained from BD Pharmingen (San Diego, Calif.), BioLegend (San Diego, Calif.) and R&D Systems, Inc. (Minneapolis, Minn.) and prepared according to the manufacturer's specifications (see Table 2) and a volume of 40 μl/well added to high-binding 96 well ELISA plates. Plates were then incubated for 2 hours at 37° C. or overnight at 4° C. After incubation, plates were washed in PBS-T (×3) and tapped dry. Plates were then blocked with the appropriate blocking solution (see Table 2) and incubated for 2 hours at 37° C. After incubation plates were washed in PBS-T (×3) and tapped dry. […] Plates were then stopped by the addition of 20 μl/well of 1M H2SO4 and read. […]

[4] = tested on: IL-1β production by BMDCs from NLRP3−/− mice; test: IL-1β ELISA on supernatants of NLRP3−/− BMDCs; assay type: cell-based, mouse; details: SC-PS 31.25 μg/ml to 1 mg/ml, lectin 1.56 to 50 μg/ml
Description: as §1, §3

BALB/c mice = test: OVA-specific cytokine responses of peritoneal cells after i.p. immunization; assay type: in vivo, mouse; details: i.p. days 0 and 35, day 42; OVA 100 μg/ml restimulation; comparison with OVA-loaded PS particles
Description: Five groups of 6-8 week old female BALB/c mice (five mice per group) were i.p, immunized on day 0 with a total volume of 200 μl of vaccine. All ovalbumin (OVA) used was endotoxin-free. The groups were:
On day 34, blood was collected from the tail vein of each mouse and used to measure serum antibody titres. The following day, mice were i.p. immunized with an identical series of booster vaccinations as on day 0. Mice were sacrificed on day 42 by cervical dislocation, and cells were harvested.
Spleens were removed from the mice, and single cell suspensions prepared as described above. Peritoneal lavages were also performed. Cells were plated onto 96 well U-bottomed plates at cell densities of 2×10^6 cells/ml for splenocytes and 1×10^6 cells/ml for peritoneal lavage cells in 200 μl of complete RPMI 1640 medium per well.
Cells were stimulated in vitro with PBS, endotoxin-free OVA (50 μg/ml, 100 μg/ml, 500 μg/ml), phorbol myristate acetate (PMA, 25 ng/ml) combined with anti-CD3 (1 μg/ml) or anti-CD3 alone (0.5 μg/ml). Cells were incubated with antigen for 3 days. Supernatants were then removed and IL-5, IL-10, IL-17 and IFN-γ cytokine concentrations were determined by ELISA. […]

Molecule | TLR-4 agonist-primed IL-1α production [1] | TLR-4 agonist-primed IL-1β production [2] | IL-1α production in the absence of NLRP3 [3] | IL-1β production in the absence of NLRP3 [4] | antigen-specific IL-5 by peritoneal cells (BALB/c mice) | antigen-specific IL-17 by peritoneal cells (BALB/c mice)
PHA-E: SC-PS particles conjugated with biotinylated Phaseolus vulgaris erthyroagglutinin | greatly increased IL-1α production and remained effective across four of the five serial dilutions | greatly increased IL-1β production and remained effective across four serial dilutions | enhances IL-1α production | not IL-β production |  | 
PHA-L: SC-PS particles conjugated with biotinylated Phaseolus vulgaris leukoagglutinin | greatly increased IL-1α production and remained effective across four of the five serial dilutions | greatly increased IL-1β production and remained effective across four serial dilutions | enhances IL-1α production | not IL-1β production |  | 
B1 |  |  |  |  | stronger | stronger
